Legend:
[1] = test system: Leukosis cells of P-388 mouse; experiment: Antitumor Effect Test (P-388 leukemia grafted into the abdomen of mice, ratio of survival days T/C); format: in vivo; details: dosed into the abdomen successively for 5 days, P-388 in CDF1 or BDF1 mouse
Source text: [Antitumor Effect Test] Leukosis cells of P-388 mouse of 1×10^6 /mouse were grafted into the abdomen of CDF1 or BDF1 mouse, and the fixed quantity of the compound of this invention was successively dosed into the abdomen for 5 days. Each 6 mice per dose level as test groups and 30~33 mice as control groups were used. [formula]

[2] = Acute Toxicity Test (LD50); details: in vivo
[3] = Mus musculus, P388, ip, 120 h, 30 mg/kg

| SMILES | response vs control in vivo at 30 mg/kg [1, 3] [%] | response vs control in vivo at 60 mg/kg ([1]; Mus musculus, P388, ip, 120 h) [%] | LD50 [2] [mg/kg] | response vs control in vivo at 15 mg/kg ([1]; Mus musculus, P388, ip, 120 h) [%] | response vs control in vivo at 120 mg/kg ([1]; Mus musculus, P388, ip, 120 h) [%] | further results |
| --- | --- | --- | --- | --- | --- | --- |
| O=C(Nc1cccs1)n1cc(F)c(=O)[nH]c1=O [Experiment 1] | 129 | 138 | > 240 |  |  | T/C (ratio of survival days) ([1]; 30 mg/kg): 129% |
| O=C(Nc1ccc[n+]([O-])c1)n1cc(F)c(=O)[nH]c1=O [Experiment 2] | 149 | 166 | 240 | 127 |  |  |
| O=C(Nc1c[nH]c2ccccc12)n1cc(F)c(=O)[nH]c1=O [Experiment 3] | 123 | 135 | > 400 |  | 136 | response vs control in vivo at 400 mg/kg ([1]; Mus musculus, P388, ip, 120 h): 153% |
| O=C(NCc1c[nH]c2ccccc12)n1cc(F)c(=O)[nH]c1=O [Experiment 4] | 117 | 115 | > 400 |  | 118 | response vs control in vivo at 400 mg/kg ([1]; Mus musculus, P388, ip, 120 h): 128% |
| O=C(NCNC(=O)n1cc(F)c(=O)[nH]c1=O)c1ccccc1 [Experiment 13] | 117 | 132 | 240 |  | 147 |  |
| O=C(NCC[n+]1ccccc1)n1cc(F)c(=O)[nH]c1=O [Experiment 14, 5-Fluoro-3,4-dihydro-2,4-dioxo-N-[2-(1-pyridino)ethyl]-1(2H-pyrimidinecarboxamide chloride] | 171 | 215 | 120 | 169 |  |  |
| O=C(NCCCCC[n+]1ccccc1)n1cc(F)c(=O)[nH]c1=O [Experiment 16, 5-Fluoro-3,4-dihydro-2,4-dioxo-N-[5-(1-pyridinio)pentyl]-1(2H-pyrimidinecarboxamide bromide] | 120 |  | 60 | 120 |  | response vs control in vivo at 7.5 mg/kg ([1]; Mus musculus, P388, ip, 120 h): 112% |
| O=C(NCCC[n+]1ccccc1)n1cc(F)c(=O)[nH]c1=O [Experiment 17, 5-Fluoro-3,4-dihydro-2,4-dioxo-N-[3-(1-pyridinio)propyl]-1(2H-pyrimidinecarboxamide chloride] | 130 | 138 | 240 |  |  |  |
| O=C(NCCCCCCNC(=O)n1cc(F)c(=O)[nH]c1=O)Nc1cccnc1 [Experiment 18] |  |  | > 30 | 139 |  | response vs control in vivo at 0.47 mg/kg ([1]; Mus musculus, P388, ip, 120 h, 0.47 mg/kg): 110%; response vs control in vivo at 0.94 mg/kg ([1]; Mus musculus, P388, ip, 120 h, 0.94 mg/kg): 115%; response vs control in vivo at 1.87 mg/kg ([1]; Mus musculus, P388, ip, 120 h, 1.87 mg/kg): 124%; response vs control in vivo at 3.75 mg/kg ([1]; Mus musculus, P388, ip, 120 h, 3.75 mg/kg): 131%; response vs control in vivo at 7.5 mg/kg ([1]; Mus musculus, P388, ip, 120 h): 138% |
| O=C(NCCCCCCNC(=O)n1cc(F)c(=O)[nH]c1=O)Nc1ccccn1 [Experiment 19] |  | 154 | > 240 |  | 164 |  |
| NS(=O)(=O)c1ccc(NC(=O)NCCCCCCNC(=O)n2cc(F)c(=O)[nH]c2=O)cc1 [Experiment 20] | 95 | 110 | > 240 |  | 111 | response vs control in vivo at 240 mg/kg ([1]; Mus musculus, P388, ip, 120 h): 112% |
| CN(C)CCCNC(=O)NCCCCCCNC(=O)n1cc(F)c(=O)[nH]c1=O [Experiment 21] | 142 | 120 | 120 | 120 |  |  |
| O=C(NCCCCCCNC(=O)n1cc(F)c(=O)[nH]c1=O)NNC(=O)c1cccnc1 [Experiment 22] | 113 | 113 | > 400 |  | 128 | response vs control in vivo at 400 mg/kg ([1]; Mus musculus, P388, ip, 120 h): 127% |
| O=C(NCCCCCCNC(=O)n1cc(F)c(=O)[nH]c1=O)NNC(=O)c1ccncc1 [Experiment 23] | 109 | 119 | > 240 |  | 124 | response vs control in vivo at 240 mg/kg ([1]; Mus musculus, P388, ip, 120 h): 138% |

— patent publication US4792607A, “5-fluoro-3,4-dihydro-2,4-dioxo-N-(3-indolyl)-1(2H)-pyrimidinecarboxamides” (Chisso Corporation, priority 1986, dated 1988)
